Data from patent US11077128B2, “Selective inhibitors of Alpha2-containing isoforms of Na,K-ATPase and use thereof for reduction of intraocular pressure” (Yeda Research and Development Co. Ltd., priority 2015, dated 2021).

Columns and labels:
[1] = molecular target: human Na,K-ATPase α2β1FXYD1 (Homo sapiens, UniProt P50993); assay: biochemical; assay type: biochemical
[2] = test system: human Na,K-ATPase α2β3FXYD1; assay: biochemical; assay type: biochemical

Row | SMILES | Selectivity Ki ratio α1β1/α2β1 [1] | Selectivity Ki ratio α1β1/α2β3 [2]
1 | CC1CN(CCS(C)(=O)=O)CCC(O[C@@H]2C(C)O[C@@H](OC3C(C)OC(O[C@H]4CC[C@@]5(C)C(CCC6C5CC(O)[C@]5(C)[C@@H](C7=CC(=O)OC7)CC[C@]65O)C4)C[C@@H]3O)C[C@@H]2O)O1 (stereo in doubt) [DESM, 4-((3S,5R,8R,9S,10S,12R,13S,14S,17R)-12,14-dihydroxy-3-(((2S,4S,5R,6R)-4-hydroxy-5-(((2S,4S,5S,6R)-4-hydroxy-6-methyl-5-((2-methyl-4-(2-(methylsulfonyl)ethyl)-1,4-oxazepan-7-yl)oxy)tetrahydro-2H-pyran-2-yl)oxy)-6-methyltetrahydro-2H-pyran-2-yl)oxy)-10,13-dimethylhexadecahydro-1H-cyclopenta[a]phenanthren-17-yl)furan-2(5H)-one] | 9.4 | 
2 | CC1CN(CCC2CC2)CCC(O[C@@H]2C(C)O[C@@H](OC3C(C)OC(O[C@H]4CC[C@@]5(C)C(CCC6C5CC(O)[C@]5(C)[C@@H](C7=CC(=O)OC7)CC[C@]65O)C4)C[C@@H]3O)C[C@@H]2O)O1 (stereo in doubt) [DEcP, 4-((3S,5R,8R,9S,10S,12R,13S,14S,17R)-3-(((2S,4S,5R,6R)-5-(((2S,4S,5S,6R)-5-((4-(2-cyclopropylethyl)-2-methyl-1,4-oxazepan-7-yl)oxy)-4-hydroxy-6-methyltetrahydro-2H-pyran-2-yl)oxy)-4-hydroxy-6-methyltetrahydro-2H-pyran-2-yl)oxy)-12,14-dihydroxy-10,13-dimethylhexadecahydro-1H-cyclopenta[a]phenanthren-17-yl)furan-2(5H)-one] |  | 10-12
3 | CC1CN(CS(C)(=O)=O)CCC(O[C@@H]2C(C)O[C@@H](OC3C(C)OC(O[C@H]4CC[C@@]5(C)C(CCC6C5CC(O)[C@]5(C)[C@@H](C7=CC(=O)OC7)CC[C@]65O)C4)C[C@@H]3O)C[C@@H]2O)O1 (stereo in doubt) [DMSM, 4-((3S,5R,8R,9S,10S,12R,13S,14S,17R)-12,14-dihydroxy-3-(((2S,4S,5R,6R)-4-hydroxy-5-(((2S,4S,5S,6R)-4-hydroxy-6-methyl-5-((2-methyl-4-((methylsulfonyl)methyl)-1,4-oxazepan-7-yl)oxy)tetrahydro-2H-pyran-2-yl)oxy)-6-methyltetrahydro-2H-pyran-2-yl)oxy)-10,13-dimethylhexadecahydro-1H-cyclopenta[a]phenanthren-17-yl)furan-2(5H)-one] | 6.9 | 
4 | CC1CN(C2CC2)CCC(O[C@@H]2C(C)O[C@@H](O[C@@H]3C(C)O[C@@H](O[C@H]4CC[C@@]5(C)C(CCC6C5CC(O)[C@]5(C)[C@@H](C7=CC(=O)OC7)CC[C@]65O)C4)C[C@@H]3O)C[C@@H]2O)O1 (stereo in doubt) [DcP, 4-((3S,5R,8R,9S,10S,12R,13S,14S,17R)-3-(((2R,4S,5S,6R)-5-(((2S,4S,5S,6R)-5-((4-cyclopropyl-2-methyl-1,4-oxazepan-7-yl)oxy)-4-hydroxy-6-methyltetrahydro-2H-pyran-2-yl)oxy)-4-hydroxy-6-methyltetrahydro-2H-pyran-2-yl)oxy)-12,14-dihydroxy-10,13-dimethylhexadecahydro-1H-cyclopenta[a]phenanthren-17-yl)furan-2(5H)-one] | 7.5 | 
5 | CC1CN(C(C)C)CCC(O[C@@H]2[C@H](C)O[C@@H](O[C@@H]3[C@H](C)O[C@@H](O[C@H]4CC[C@@]5(C)C(CCC6C5C[C@H](O)[C@]5(C)[C@@H](C7=CC(=O)OC7)CC[C@]65O)C4)C[C@@H]3O)C[C@@H]2O)O1 (some centres unmarked) [DiP] | 5.1 | 
